US12491170B2, “Stable treprostinil prodrugs” (United Therapeutics Corporation, priority 2020, dated 2025)
Where two headings read alike, the source gives them in different places.

What was measured:
[1] = Stability in liver microsomes, human
[2] = Stability in liver microsomes, rat
[3] = Stability in liver microsomes, dog
[4] = Stability in cryopreserved hepatocytes, human
[5] = Stability in cryopreserved hepatocytes, rat
[6] = Stability in cryopreserved hepatocytes, dog
[7] = Stability in human subcutaneous skin homogenate
[8] = rat
[9] = dog

For `CCCCCC(CCC1C(O)CC2Cc3c(cccc3OCC(=O)O)CC21)OC(=O)C(C)(C)C` (centres unmarked) [XLIX], the “Trep Concentration 0 min” value [1] was 0.137 µM, the “Trep Concentration 10 min” value [1] was 0.171 µM and the “Trep Concentration 20 min” value [1] was 0.174 µM. For the same compound, the “Trep Concentration 30 min” value [1] was 0.163 µM, the “Trep Concentration 60 min” value [1] was 0.125 µM and the AUC ([1]; human) was 9.27 µmol·min/L. For the same compound, the “Trep Concentration 0 min” value [2] was 0 µM, the “Trep Concentration 10 min” value [2] was 0.00512 µM and the “Trep Concentration 20 min” value [2] was 0.00637 µM. For the same compound, the “Trep Concentration 30 min” value [2] was 0.009 µM, the “Trep Concentration 60 min” value [2] was 0.0074 µM and the “Trep Concentration 0 min” value [3] was 0.17 µM. The “Trep Concentration 10 min” value [3] was 0.325 µM, the “Trep Concentration 20 min” value [3] was 0.433 µM and the “Trep Concentration 30 min” value [3] was 0.451 µM. For the same compound, the “Trep Concentration 60 min” value [3] was 0.558 µM, the “Trep Concentration (μM) 0 min” value [4] was 0 µM and the “Trep Concentration (μM) 15 min” value [4] was 0.192 µM. The “Trep Concentration (μM) 30 min” value [4] was 0.179 µM, the “Trep Concentration (μM) 60 min” value [4] was 0.217 µM and the “Trep Concentration (μM) 120 min” value [4] was 0.237 µM. The “AUC” value ([4]; human) was 23.78 µmol·min/L, the “Trep Concentration (μM) 0 min” value [5] was 0 µM and the “Trep Concentration (μM) 15 min” value [5] was 0.00943 µM. For the same compound, the “Trep Concentration (μM) 30 min” value [5] was 0.0122 µM, the “Trep Concentration (μM) 60 min” value [5] was 0.0182 µM and the “Trep Concentration (μM) 120 min” value [5] was 0.0273 µM. The “AUC” value ([5]; rat) was 2.05 µmol·min/L, the “Trep Concentration (μM) 0 min” value [6] was 0 µM and the “Trep Concentration (μM) 15 min” value [6] was 0.0727 µM. For the same compound, the “Trep Concentration (μM) 30 min” value [6] was 0.111 µM, the “Trep Concentration (μM) 60 min” value [6] was 0.19 µM and the “Trep Concentration (μM) 120 min” value [6] was 0.258 µM. For the same compound, the “AUC” value ([6]; dog) was 19.88 µmol·min/L, the “Trep Concentration 0 min” value [7] was 0 µM and the “Trep Concentration 30 min” value [7] was 0.0159 µM. For the same compound, the “Trep Concentration 60 min” value [7] was 0.0303 µM, the “Trep Concentration 120 min” value [7] was 0.0592 µM and the AUC ([7]; human) was 3.62 µmol·min/L. It also gave an AUC [8] of 0.41 µmol·min/L and an AUC [9] of 25.82 µmol·min/L.
